Test results as given in patent publication US6399782B1, “Benzimidazole inhibitors of fructose 1,6-bisphosphatase” (Metabasis Therapeutics, Inc., priority 1997, dated 2002).
Counter-ions that a name gives are not always drawn.

A melting point of 184 to 185 °C was found for `COc1cccc(-n2c(-c3ccc(P(=O)(O)O)o3)nc3ccc(Cl)cc32)c1` [Compound 13.65, 6-Chloro-1-(3-methoxyphenyl)-2-(2-phosphono-5-furanyl)benzimidazole] in this work. For `O=P(O)(O)c1ccc(-c2nc3ccccc3[nH]2)o1` [Compound 13.1, 2-(2-Phosphono-5-furanyl)benzimidazole], the melting point was > 250 °C. A melting point of 238 °C was found for `CC(C)Cn1c(-c2ccc(P(=O)(O)O)o2)nc2cc(Cl)ccc21` [Compound 13.16, 5-Chloro-1-isobutyl-2-(2-phosphono-5-furanyl)benzimidazole] in this work. A melting point of 238 to 242 °C was found for `C=Cc1cc(F)c(N)c2nc(-c3ccc(P(=O)(O)O)o3)n(CC(C)C)c12` [Compound 12.70, 4-Amino-7-vinyl-5-fluoro-1-isobutyl-2-(2-phosphono-5-furanyl)benzimidazole] in this work. For `CCC(CC)Cn1c(-c2ccc(P(=O)(O)O)o2)nc2c(N)c(F)ccc21` [Compound 12.73, 4-Amino-5-fluoro-1-(2-ethylbutyl)-2-(2-phosphono-5-furanyl)benzimidazole], the melting point was 178 to 182 °C (dec.). A melting point of 249 to 250 °C was found for `CCc1cc(F)c(N)c2c1nc(-c1ccc(P(=O)(O)O)o1)n2CC(C)C` [Compound 12.65, 7-Amino-4-ethyl-6-fluoro-1-isobutyl-2-(2-phosphono-5-furanyl)benzimidazole] in this work. A melting point of 205 to 209 °C was found for `Cc1c(Br)cc2c(nc(-c3ccc(P(=O)(O)O)o3)n2CC(C)C)c1C` [Compound 13.53, 4,5-Dimethyl-6-bromo-1-isobutyl-2-(2-phosphono-5-furanyl)benzimidazole] in this work. A melting point of 196 to 200 °C was found for `O=P(O)(O)c1ccc(-c2nc3ccccc3n2-c2ccccc2)o1` [Compound 13.12, 1-Phenyl-2-(2-phosphono-5-furanyl)benzimidazole] in this work. A melting point of 208 to 211 °C was found for `CC(C)Cn1c(-c2ccc(P(=O)(O)O)o2)nc2cc(F)c(N)c(Br)c21` [Compound 13.69, 1-Isobutyl-5-fluoro-6-amino-7-bromo-2-(2-phosphono-5-furanyl)benzimidazole] in this work. A melting point of 150 to 210 °C was found for `CC(C)Cn1c(-c2ccc(P(=O)(O)O)o2)nc2c(Br)cc(Br)cc21` [Compound 13.43, 4,6-Dibromo-1-isobutyl-2-(2-phosphono-5-furanyl)benzimidazole] in this work. A melting point of 212 to 213 °C was found for `COc1ccc2c(nc(-c3ccc(P(=O)(O)O)o3)n2CC(C)C)c1N` [Compound 12.55, 4-Amino-5-methoxy-1-isobutyl-2-(2-phosphono-5-furanyl)benzimidazole] in this work. For `CC(C)Cn1c(-c2ccc(P(=O)(O)O)o2)nc2c(N)c(F)cc(-c3ccc(F)cc3)c21` [Compound 12.68, 4-Amino-7-p-fluorophenyl-5-fluoro-1-isobutyl-2-(2-phosphono5-furanyl)benzimidazole], the melting point was 239 to 240 °C (dec.). A melting point of 350 °C was found for `CC(C)COc1cccc2c1nc(-c1ccc(P(=O)(O)O)o1)n2CC(C)C` [Compound 13.20, 1-Isobutyl-4-isobutyloxy-2-(2-phosphono-5-furanyl)benzimidazole] in this work. A melting point of 196 to 200 °C was found for `Cc1cc(C)c2c(c1)nc(-c1ccc(P(=O)(O)O)o1)n2CC(C)C` (hydrate or solvate) [Compound 13.87, 1-Isobutyl-5,7-dimethyl-2-(2-phosphono-5-furanyl)benzimidazole] in this work. A melting point of 207 to 210 °C was found for `CCCc1ccc2c(nc(-c3ccc(P(=O)(O)O)o3)n2CC(C)C)c1N` [Compound 12.60, 4-Amino-5-propyl-1-isobutyl-2-(2-phosphono-5-furanyl)benzimidazole] in this work. A melting point of 155 to 158 °C was found for `CC(C)Cn1c(-c2ccc(P(=O)(O)O)o2)nc2c(F)c(F)c(F)cc21` [Compound 12.78, 4,5,6-Trifluoro-1-isobutyl-2-(2-phosphono-5-furanyl)benzimidazole] in this work. A melting point of 220 to 224 °C was found for `O=C(O)c1ccccc1-n1c(-c2ccc(P(=O)(O)O)o2)nc2cc(Cl)ccc21` [Compound 13.13, 1-(2-Carboxyphenyl)-2-(2-phosphono-5-furanyl)-5-chloro benzimidazole] in this work. In the case of `COc1cccc(-c2cc(F)c(N)c3nc(-c4ccc(P(=O)(O)O)o4)n(CC(C)C)c23)c1` [Compound 12.74, 4-Amino-7-m-methoxyphenyl-5-fluoro-1-isobutyl-2-(2-phosphono-5-furanyl)benzimidazole], the melting point was 208 to 212 °C (dec.). A melting point of 180 to 210 °C was found for `O=P(O)(O)c1ccc(-c2nc3cc(Cl)c(Cl)cc3n2CC2CC2)o1` [Compound 13.45, 5,6-Dichloro-1-cyclopropylmethyl-2-(2-phosphono-5-furanyl)benzimidazole] in this work. For `CC(=O)Nc1c(F)cc2nc(-c3ccc(P(=O)(O)O)o3)n(CC(C)C)c2c1Br` [Compound 13.76, 1-Isobutyl-5-fluoro-6-acetamido-7-bromo-2-(2-phosphono-5-furanyl)benzimidazole], the melting point was 217 to 221 °C (dec.). A melting point of 192 to 195 °C was found for `CC(C)n1c(-c2ccc(P(=O)(O)O)o2)nc2cc(Cl)ccc21` [Compound 13.33, 5-Chloro-1-isopropyl-2-(2-phosphono-5-furanyl)benzimidazole] in this work. A melting point of 155 to 175 °C was found for `CC(C)Cn1c(-c2ccc(P(=O)(O)O)o2)nc2c(Cl)cc(Cl)cc21` [Compound 13.39, 4,6-Dichloro-1-isobutyl-2-(2-phosphono-5-furanyl)benzimidazole] in this work. For `CC(C)Cn1c(-c2ccc(P(=O)(O)O)o2)nc2c(N)c(F)cc(-c3ccccc3)c21` [Compound 12.67, 4-Amino-7-phenyl-5-fluoro-1-isobutyl-2-(2-phosphono-5-furanyl)benzimidazole], the melting point was 240 to 241 °C (dec.). A melting point of 212 to 216 °C was found for `Cc1c(Cl)cc2c(nc(-c3ccc(P(=O)(O)O)o3)n2CCCCBr)c1C` [Compound 13.90, 1-(4-Bromobutyl)-4,5-dimethyl-6-chloro-2-(2-phosphono-5-furanyl)benzimidazole] in this work. For `CCCc1cc(F)c(N)c2nc(-c3ccc(P(=O)(O)O)o3)n(CC(C)C)c12` [Compound 12.81, 4-Amino-5-fluoro-7-n-propyl-1-isobutyl-2-(2-phosphono-5-furanyl)benzimidazole], the melting point was 220 to 230 °C (dec.). For `CC(C)Cn1c(-c2ccc(P(=O)(O)O)o2)nc2c(N)c(F)cc(CCCN(C)C)c21` (as salt: hydrobromid) [Compound 12.84, 4-Amino-5-fluoro-7-(3-N,N-dimethylpropylamine)-1-isobutyl-2-(2-phosphono-5-furanyl)benzimidazole hydrobromide salt], the melting point was 208 to 212 °C (dec.). With `Cl.NCCCCn1c(-c2ccc(P(=O)(O)O)o2)nc2cc(Cl)ccc21` (hydrate or solvate) the melting point was 236 to 240 °C (dec.). A melting point of 225 to 227 °C was found for `CC(C)Cn1c(-c2ccc(P(=O)(O)O)o2)nc2cc(Cl)c(Cl)cc21` [Compound 13.44, 5,6-Dichloro-1-isobutyl-2-(2-phosphono-5-furanyl)benzimidazole] in this work. A melting point of 202 to 205 °C was found for `CC(C)Cn1c(-c2ccc(P(=O)(O)O)o2)nc2ccc(F)cc21` [Compound 13.27, 6-Fluoro-1-isobutyl-2-(2-phosphono-5-furanyl)benzimidazole] in this work. A melting point of 208 to 211 °C was found for `Cc1cccc2c1nc(-c1ccc(P(=O)(O)O)o1)n2CC(C)C` [Compound 13.54, 4-Methyl-1-isobutyl-2-(2-phosphono-5-furanyl)benzimidazole] in this work. A melting point of 224 to 225 °C was found for `Nc1c(Br)c(Cl)c(Cl)c2nc(-c3ccc(P(=O)(O)O)o3)[nH]c12` [Compound 12.58, 4-Amino-5-bromo-6,7-dichloro-2-(2-phosphono-5-furanyl)benzimidazole] in this work. A melting point of 250 to 260 °C was found for `CC(C)Cn1c(-c2ccc(P(=O)(O)O)o2)nc2cc(F)c(F)c(F)c21` [Compound 12.77, 5,6,7-Trifluoro-1-isobutyl-2-(2-phosphono-5-furanyl)benzimidazole] in this work. In the case of `NCCCCn1c(-c2ccc(P(=O)(O)O)o2)nc2ccc(Cl)cc21` (hydrate or solvate) [Compound 13.95, 1-(4-Aminobutyl)-6-chloro-2-(2-phosphono-5-furanyl)benzimidazole], the melting point was 250 to 252 °C (dec.). In the case of `CC(C)Cn1c(-c2ccc(P(=O)(O)O)o2)nc2c(N)c(F)cc(-c3ccc(Cl)cc3)c21` [Compound 12.69, 4-Amino-7-p-chlorophenyl-5-fluoro-1-isobutyl-2-(2-phosphono-5-furanyl)benzimidazole], the melting point was 235 to 236 °C (dec.). A melting point of 202 to 206 °C was found for `Cc1c(C)c(C)c2[nH]c(-c3ccc(P(=O)(O)O)o3)nc2c1C` [Compound 13.82, 4,5,6,7-Tetramethyl-2-(2-phosphono-5-furanyl)benzimidazole] in this work. A melting point of 207 to 208 °C was found for `Cc1c(C)c(C)c2c(nc(-c3ccc(P(=O)(O)O)o3)n2CC2CC2)c1C` (hydrate or solvate) [Compound 13.88, 1-Cyclopropylmethyl-4,5,6,7-tetramethyl-2-(2-phosphono-5-furanyl)benzimidazole] in this work. With `CC(C)Cn1c(-c2ccc(P(=O)(O)O)o2)nc2c(N)c(F)cc(CCCCCl)c21` [Compound 12.83, 4-Amino-5-fluoro-7-(4-chlorobutyl)-1-isobutyl-2-(2-phosphono-5-furanyl)benzimidazole] the melting point was 210 to 220 °C (dec.). A melting point of 178 to 185 °C was found for `CCc1cc(F)c(N)c2nc(-c3ccc(P(=O)(O)O)o3)n(CC3CC3)c12` [Compound 12.75, 4-Amino-7-ethyl-5-fluoro-1-cyclopropylmethyl-2-(2-phosphono-5-furanyl)benzimidazole] in this work. With `CCC(CC)n1c(-c2ccc(P(=O)(O)O)o2)nc2c(N)c(F)ccc21` [Compound 12.76, 4-Amino-5-fluoro-1-(3-pentyl)-2-(2-phosphono-5-furanyl)benzimidazole] the melting point was 180 to 185 °C (dec.). A melting point of 196 to 199 °C was found for `CC(C)Cn1c(-c2ccc(P(=O)(O)O)o2)nc2cc(Cl)c(F)cc21` [Compound 13.50, 5-Chloro-6-fluoro-1-isobutyl-2-(2-phosphono-5-furanyl)benzimidazole] in this work. A melting point of 200 to 203 °C was found for `CC(C)Cn1c(-c2ccc(P(=O)(O)O)o2)nc2ccccc21` [Compound 13.2, 1-Isobutyl-2-(2-phosphono-5-furanyl)benzimidazole] in this work. With `CC(C)Cn1c(-c2ccc(P(=O)(O)O)o2)nc2c(N)c(F)cc(C3CC3)c21` [Compound 12.66, 4-Amino-7-cyclopropyl-5-fluoro-1-isobutyl-2-(2-phosphono-5-furanyl)benzimidazole] the melting point was 250 to 255 °C (dec.).
